What follows are molecules tested against T1, Recombinant Human SSAO/VAP-1/AOC3 (Homo sapiens, UniProt Q16853) (assay: Human Semicarbazide-Sensitive Amine Oxidase (SSAO) Assay). Conditions: recombinant enzyme, 30 minutes preincubation at 37° C., benzylamine substrate, Amplex Ultra Red/HRP fluorescence.
T1 construct: purchased R&D systems 3957-AO
T1 sequence (Q16853 1-763): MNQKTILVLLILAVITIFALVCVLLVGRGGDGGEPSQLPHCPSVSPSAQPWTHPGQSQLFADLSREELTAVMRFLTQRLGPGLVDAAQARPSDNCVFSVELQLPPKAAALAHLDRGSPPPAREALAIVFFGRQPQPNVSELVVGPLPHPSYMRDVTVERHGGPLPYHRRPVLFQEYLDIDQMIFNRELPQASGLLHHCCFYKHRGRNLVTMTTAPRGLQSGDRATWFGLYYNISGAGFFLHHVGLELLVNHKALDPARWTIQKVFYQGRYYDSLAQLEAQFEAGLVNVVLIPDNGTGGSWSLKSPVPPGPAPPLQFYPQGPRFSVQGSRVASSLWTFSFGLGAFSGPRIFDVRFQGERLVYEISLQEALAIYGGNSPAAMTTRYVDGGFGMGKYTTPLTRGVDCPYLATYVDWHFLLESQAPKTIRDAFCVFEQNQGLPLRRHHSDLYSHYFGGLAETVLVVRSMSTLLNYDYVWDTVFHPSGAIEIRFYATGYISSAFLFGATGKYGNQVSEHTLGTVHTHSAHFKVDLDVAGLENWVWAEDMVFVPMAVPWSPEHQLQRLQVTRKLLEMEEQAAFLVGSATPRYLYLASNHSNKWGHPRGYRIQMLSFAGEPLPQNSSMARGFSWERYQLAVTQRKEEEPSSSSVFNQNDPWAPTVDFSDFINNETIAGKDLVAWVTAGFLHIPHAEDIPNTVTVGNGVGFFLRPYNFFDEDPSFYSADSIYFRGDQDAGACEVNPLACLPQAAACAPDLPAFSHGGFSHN
Format: biochemical
Description: Compounds were dissolved in DMSO to provide a Concentration Response Curve (CRC; at 500 times the final concentration) over a range of 6-10 dilutions.
Recombinant Human SSAO/VAP-1/AOC3 (R&D systems; Catalog #3957-AO) was used to screen compound potency in vitro, according to previously described methods (J Pharmacol Exp Ther. 2013 November; 347(2):365-74). SSAO enzyme was suspended in 50 mM HEPES buffer to a working concentration of 2.5 μg/ml and 40 μL of this enzyme mixture was then added to each well of a F16 Black Maxisorp 96 well Plate (Nunc, Catalog #475515). Ten microliters of each test compound (at 5 times the final concentration) were added to each well, resulting in a final well volume of 50 μL of the enzyme and inhibitor mixture. The compounds were preincubated with the enzyme for 30 minutes at 37° C., prior to the addition of a 40 μL volume of Amplex Ultra Red (125 uM AUR; Molecular Probes, Catalog # A36006)/Horseradish peroxidase (2.5 U/ml HRP; Sigma-Aldrich Catalog # P8375) oxidase detection reagent containing cytochrome C ([…]; Sigma-Aldrich Catalog # C7752). Cytochrome C was included in the AUR/HRP detection mixture to reduce the background fluorescence that can occur via the spontaneous redox reaction between AUR and HRP. The SSAO enzyme reaction was then initiated by adding 10 μL of the SSAO substrate, benzylamine (Sigma-Aldrich Catalog # B5136), and SSAO activity was measured in kinetic mode over a 30-120 minute sampling period (excit. 544 nm; emit 590 nm; cut off 570 nm; medium gain) to obtain IC50 values for enzyme activity in each treatment well.

Row | IC50 [nM] | Compound
1 | ≤ 10 | CC1(C)CC(NC(=O)C23CCC(c4ccc(OC/C(=C/F)CN)cc4)(CC2)CC3)CCO1 (stereo not shown) [Compound 2.42, (E)-4-(4-((2-(aminomethyl)-3-fluoroallyl)oxy)phenyl)-N-(2,2-dimethyltetrahydro-2H-pyran-4-yl)bicyclo[2.2.2]octane-1-carboxamide]
2 | ≤ 10 | NC/C(=C\F)COc1ccc(C23CCC(C(=O)NC4CCC(F)(F)CC4)(CC2)CC3)cc1 [Compound 2.46, (E)-4-(4-((2-(aminomethyl)-3-fluoroallyl)oxy)phenyl)-N-(4,4-difluorocyclohexyl)bicyclo [2.2.2]octane-1-carboxamide]
3 | ≤ 10 | NC/C(=C\F)COc1ccc(C23CCC(C(=O)NCCO)(CC2)CC3)cc1 [Compound 2.47, (E)-4-(4-((2-(aminomethyl)-3-fluoroallyl)oxy)phenyl)-N-(2-hydroxyethyl)bicyclo[2.2.2] octane-1-carboxamide]
4 | ≤ 10 | CC(C)(O)CNC(=O)C12CCC(c3ccc(OC/C(=C/F)CN)cc3)(CC1)CC2 [Compound 2.48, (E)-4-(4-((2-(aminomethyl)-3-fluoroallyl)oxy)phenyl)-N-(2-hydroxy-2-methylpropyl)bicyclo[2.2.2] octane-1-carboxamide]
5 | ≤ 10 | CC(C)(C)NC(=O)C12CCC(c3ccc(OC/C(=C/F)CN)cc3)(CC1)CC2 [Compound 2.49, (E)-4-(4-((2-(aminomethyl)-3-fluoroallyl)oxy)phenyl)-N-(tert-butyl)bicyclo[2.2.2]octane-1-carboxamide]
6 | ≤ 10 | NC/C(=C\F)COc1ccc(C23CCC(C(=O)N4CCCOCC4)(CC2)CC3)cc1 [Compound 2.50, (E)-(4-(4-((2-(aminomethyl)-3-fluoroallyl)oxy)phenyl)bicyclo [2.2.2]octan-1-yl)(1,4-oxazepan-4-yl)methanone]
7 | ≤ 10 | N#CC1CN(C(=O)C23CCC(c4ccc(OC/C(=C/F)CN)cc4)(CC2)CC3)C1 [Compound 2.57, (E)-1-(4-(4-((2-(aminomethyl)-3-fluoroallyl)oxy)phenyl)bicyclo[2.2.2]octane-1-carbonyl)azetidine-3-carbonitrile]
8 | ≤ 10 | NC/C(=C\F)COc1ccc(C23CCC(C(=O)NC45CCC(O)(CC4)CC5)(CC2)CC3)cc1 [Compound 2.58, (E)-4-(4-((2-(aminomethyl)-3-fluoroallyl)oxy)phenyl)-N-(4-hydroxybicyclo[2.2.2]octan-1-yl)bicyclo[2.2.2]octane-1-carboxamide]
9 | ≤ 10 | NC/C(=C\F)COc1ccc(C23CCC(C(=O)NCCCO)(CC2)CC3)cc1 [Compound 2.61, (E)-4-(4-((2-(aminomethyl)-3-fluoroallyl)oxy)phenyl)-N-(3-hydroxypropyl)bicyclo[2.2.2] octane-1-carboxamide]
10 | ≤ 10 | N#CC1(CNC(=O)C23CCC(c4ccc(OC/C(=C/F)CN)cc4)(CC2)CC3)CCOCC1 [Compound 2.62, (E)-4-(4-((2-(aminomethyl)-3-fluoroallyl)oxy)phenyl)-N-((4-cyanotetrahydro-2H-pyran-4-yl)methyl)bicyclo[2.2.2]octane-1-carboxamide]
11 | ≤ 10 | NC/C(=C\F)COc1ccc(C23CCC(C(=O)NCC4(CO)CCOCC4)(CC2)CC3)cc1 [Compound 2.63, (E)-4-(4-((2-(aminomethyl)-3-fluoroallyl)oxy)phenyl)-N-((4-(hydroxymethyl)tetrahydro-2H-pyran-4-yl)methyl)bicyclo[2.2.2]octane-1-carboxamide]
12 | ≤ 10 | NC/C(=C\F)COc1ccc(C23CCC(C(=O)NC4CCCOC4)(CC2)CC3)cc1 (stereo not shown) [Compound 2.64, (E)-4-(4-((2-(aminomethyl)-3-fluoroallyl)oxy)phenyl)-N-(tetrahydro-2H-pyran-3-yl)bicyclo[2.2.2]octane-1-carboxamide]
13 | ≤ 10 | CC1(NC(=O)C23CCC(c4ccc(OC/C(=C/F)CN)cc4)(CC2)CC3)CCCOC1 (stereo not shown) [Compound 2.65, (E)-4-(4-((2-(aminomethyl)-3-fluoroallyl)oxy)phenyl)-N-(3-methyltetrahydro-2H-pyran-3-yl)bicyclo[2.2.2]octane-1-carboxamide]

Second part, the molecule before the results:

Row | Compound | IC50 [nM]
14 | NC/C(=C\F)COc1ccc(C23CCC(C(=O)N4CC(CO)C4)(CC2)CC3)cc1 [Compound 2.43, (E)-(4-(4-((2-(aminomethyl)-3-fluoroallyl)oxy)phenyl)bicyclo [2.2.2]octan-1-yl)(3-(hydroxymethyl)azetidin-1-yl)methanone] | ≤ 10
15 | NC/C(=C\F)COc1ccc(C23CCC(C(=O)N4CC(OCCO)C4)(CC2)CC3)cc1 [Compound 2.44, (E)-(4-(4-((2-(aminomethyl)-3-fluoroallyl)oxy)phenyl)bicyclo [2.2.2]octan-1-yl)(3-(2-hydroxyethoxy)azetidin-1-yl)methanone] | ≤ 10
16 | Cc1cnc(CCNC(=O)C23CCC(c4ccc(OC/C(=C/F)CN)cc4)(CC2)CC3)o1 [Compound 2.45, (E)-4-(4-((2-(aminomethyl)-3-fluoroallyl)oxy)phenyl)-N-(2-(5-methyloxazol-2-yl)ethyl)bicyclo[2.2.2]octane-1-carboxamide] | ≤ 10
17 | COCCOCCOCCOCCNC(=O)C12CCC(c3ccc(OC/C(=C/F)CN)cc3)(CC1)CC2 [Compound 2.51, (E)-4-(4-((2-(aminomethyl)-3-fluoroallyl)oxy)phenyl)-N-(2,5,8,11-tetraoxatridecan-13-yl)bicyclo[2.2.2]octane-1-carboxamide] | ≤ 10
18 | CC1(C)CN(C(=O)C23CCC(c4ccc(OC/C(=C/F)CN)cc4)(CC2)CC3)C1 [Compound 2.52, (E)-(4-(4-((2-(aminomethyl)-3-fluoroallyl)oxy)phenyl)bicyclo [2.2.2]octan-1-yl)(3,3-dimethylazetidin-1-yl)methanone] | ≤ 10
19 | NC/C(=C\F)COc1ccc(C23CCC(C(=O)N4CC(O)(C(F)(F)F)C4)(CC2)CC3)cc1 [Compound 2.53, (E)-(4-(4-((2-(aminomethyl)-3-fluoroallyl)oxy)phenyl)bicyclo [2.2.2]octan-1-yl)(3-hydroxy-3-(trifluoromethyl)azetidin-1-yl)methanone] | ≤ 10
20 | CN(CCO)C(=O)C12CCC(c3ccc(OC/C(=C/F)CN)cc3)(CC1)CC2 [Compound 2.54, (E)-4-(4-((2-(aminomethyl)-3-fluoroallyl)oxy)phenyl)-N-(2-hydroxyethyl)-N-methylbicyclo[2.2.2]octane-1-carboxamide] | ≤ 10
21 | COCC1CN(C(=O)C23CCC(c4ccc(OC/C(=C/F)CN)cc4)(CC2)CC3)C1 [Compound 2.55, (E)-(4-(4-((2-(aminomethyl)-3-fluoroallyl)oxy)phenyl)bicyclo [2.2.2]octan-1-yl)(3-(methoxymethyl)azetidin-1-yl)methanone] | ≤ 10
22 | CC(C)OC1CN(C(=O)C23CCC(c4ccc(OC/C(=C/F)CN)cc4)(CC2)CC3)C1 [Compound 2.56, (E)-(4-(4-((2-(aminomethyl)-3-fluoroallyl)oxy)phenyl)bicyclo [2.2.2]octan-1-yl)(3-isopropoxyazetidin-1-yl)methanone] | ≤ 10
23 | NC/C(=C\F)COc1ccc(C23CCC(C(=O)N(CCO)C4CC4)(CC2)CC3)cc1 [Compound 2.59, (E)-4-(4-((2-(aminomethyl)-3-fluoroallyl)oxy)phenyl)-N-cyclopropyl-N-(2-hydroxyethyl)bicyclo[2.2.2] octane-1-carboxamide] | ≤ 10
24 | NC/C(=C\F)COc1ccc(C23CCC(C(=O)N4CC(F)(CO)C4)(CC2)CC3)cc1 [Compound 2.60, (E)-(4-(4-((2-(aminomethyl)-3-fluoroallyl)oxy)phenyl)bicyclo[2.2.2]octan-1-yl)(3-fluoro-3-(hydroxymethyl)azetidin-1-yl)methanone] | ≤ 10
25 | NC/C(=C\F)COc1ccc(C23CCC(C(=O)N4C5CCC4COC5)(CC2)CC3)cc1 [Compound 2.67, (E)-(4-(4-((2-(aminomethyl)-3-fluoroallyl)oxy)phenyl)bicyclo [2.2.2]octan-1-yl)(3-oxa-8-azabicyclo[3.2.1]octan-8-yl)methanone] | ≤ 10
